The results in this text go back to US10517870B2, “Aryl substituted bicycle heteroaryl compounds” (Bristol-Myers Squibb Company, priority 2015, dated 2019).

Experiment [1] deals with SiHa (HPV16+) cells. In words: Cell proliferation/viability assay, SiHa cells. The experiment is classed as cell-based. The conditions noted are these: Homo sapiens, 96 h, 4 days. Summed up: (§1)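 Cells plated in antibiotic-free growth medium, compound added 2 h later (0.5% DMSO final) and incubated 4 days at 37 °C. Viability by CellTiter Blue (ex 530/em 590 nm) or CellTiter Glo luminescence; IC50 from four-parameter logistic fit of % inhibition.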

The test system of experiment [2] is Saos-2 (HPV−) cells. The experiment can be described thus: Cell proliferation/viability assay, Saos-2 cells. The conditions noted are these: Homo sapiens, SAOS-2, 96 h, read-out: Saos-2 (HPV−) Proliferation IC50 (μM). The experiment is classed as cell-based. Summed up:
as §1

On to `COc1ccc(-c2cc(C)cc3nc(OC(F)F)cnc23)cc1` [Example 6, 2-(difluoromethoxy)-5-(4-methoxyphenyl)-7-methylquinoxaline], for which the figures for the IC50 in experiment [1] and in experiment [2] were 10.1 µM and 48 µM, respectively.
